Results taken from patent US4684664A, “Derivatives of β-(4-isocyano-1,2,3,4-diepoxycyclopentyl) acrylic acid” (Kureha Kagaku Kogyo Kabushiki Kaisha, priority 1984, dated 1987).
In brackets after ≈: the same amount, converted by molar mass.

Experiments:
Type in all cases: cell-based
[1] = test system: Proteus vulgaris OX-19; assay: Antibacterial activity, agar-dilution MIC, organism No. 20; conditions: Organism No. 20, bouillon-agar; for MIC: Proteus vulgaris, OX19, read-out: Minimum Inhibitory Concentration
Outline: (§1)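 Read-out is the minimum inhibitory concentration, given as μg/ml of the culture medium, obtained by agar dilution using bouillon agar.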

[2] = test system: Mycoplasma pneumoniae IID817; assay: Antimycoplasmal activity, MIC by phenol red colour change, organism No. 28; conditions: Organism No. 28, PPLO broth + 1% glucose, 37° C.; for MIC: Mycoplasma, IID817, read-out: Minimum Inhibitory Concentration (MIC)
Protocol: Mycoplasma pneumoniae IID817 was used as the test microorganism in a culture medium prepared by adding 1% of glucose to "PPLO broth (manufactured by Difco Co.) liquid culture medium" at 37° C. with phenol red as an indicator, thereby culturing the test microorganism.

[3] = test system: Candida albicans IAM 4905; assay: Antifungal activity, agar-dilution MIC, organism No. 29; conditions: Organism No. 29, bouillon-agar; for MIC: Candida albicans, IAM4905, read-out: Minimum Inhibitory Concentration
Outline: as §1

[4] = test system: Salmonella paratyphi-A 1015; assay: Antibacterial activity, agar-dilution MIC, organism No. 10; conditions: for MIC: Salmonella enterica, PARATYPHI, read-out: Minimum Inhibitory Concentration
Outline: as §1

[5] = test system: Salmonella shottmuelleri 8006; assay: Antibacterial activity, agar-dilution MIC, organism No. 11; conditions: Organism No. 11, bouillon-agar; for MIC: Salmonella, 8006, read-out: Minimum Inhibitory Concentration
Outline: as §1

[6] = test system: Salmonella typhi 901; assay: Antibacterial activity, agar-dilution MIC, organism No. 9; conditions: for MIC: Salmonella enterica, TYPHI, read-out: Minimum Inhibitory Concentration
Outline: as §1

[7] = test system: Escherichia coli K12 C600 IAM 1264; assay: Antibacterial activity, agar-dilution MIC, organism No. 6; conditions: Organism No. 6, bouillon-agar; for MIC: Escherichia coli, IAM1264, read-out: Minimum Inhibitory Concentration
Outline: as §1

[8] = test system: Salmonella typhimurium IID 971; assay: Antibacterial activity, agar-dilution MIC, organism No. 8; conditions: Organism No. 8, bouillon-agar; for MIC: Salmonella enterica, read-out: Minimum Inhibitory Concentration
Outline: as §1

[9] = test system: Streptococcus pyogenes Cook; assay: Antibacterial activity, agar-dilution MIC, organism No. 4; conditions: Organism No. 4, bouillon-agar; for MIC: Streptococcus pyogenes, read-out: Minimum Inhibitory Concentration
Outline: as §1

[10] = test system: Proteus mirabilis IFO 3849; assay: Antibacterial activity, agar-dilution MIC, organism No. 19; conditions: Organism No. 19, bouillon-agar; for MIC: Proteus mirabilis, IFO3849, read-out: Minimum Inhibitory Concentration
Outline: as §1

[11] = test system: Pseudomonas aeruginosa PAO 1; assay: Antibacterial activity, agar-dilution MIC, organism No. 17; conditions: Organism No. 17, bouillon-agar; for MIC: Pseudomonas aeruginosa, PAO1, read-out: Minimum Inhibitory Concentration
Outline: as §1

[12] = test system: Micrococcus luteus ATCC 9341; assay: Antibacterial activity, agar-dilution MIC, organism No. 25; conditions: Organism No. 25, bouillon-agar; for MIC: Micrococcus luteus, ATCC9341, read-out: Minimum Inhibitory Concentration
Outline: as §1

[13] = test system: Streptococcus faecium IFO 3826; assay: Antibacterial activity, agar-dilution MIC, organism No. 27; conditions: Organism No. 27, bouillon-agar; for MIC: Enterococcus faecium, IFO3826, read-out: Minimum Inhibitory Concentration
Outline: as §1

[14] = test system: Staphylococcus aureus MS 353; assay: Antibacterial activity, agar-dilution MIC, organism No. 3; conditions: Organism No. 3, bouillon-agar; for MIC: Staphylococcus aureus, MS353, read-out: Minimum Inhibitory Concentration
Outline: as §1

[15] = test system: Escherichia coli NIHJ-JC-2; assay: Antibacterial activity, agar-dilution MIC, organism No. 5; conditions: Organism No. 5, bouillon-agar; for MIC: Escherichia coli, NIHJJC2, read-out: Minimum Inhibitory Concentration
Outline: as §1

[16] = test system: Proteus rettgeri IFO 3850; assay: Antibacterial activity, agar-dilution MIC, organism No. 22; conditions: Organism No. 22, bouillon-agar; for MIC: Providencia rettgeri, IFO3850, read-out: Minimum Inhibitory Concentration
Outline: as §1

[17] = test system: Enterobacter cloacae 963; assay: Antibacterial activity, agar-dilution MIC, organism No. 24; conditions: Organism No. 24, bouillon-agar; for MIC: Enterobacter cloacae, 963, read-out: Minimum Inhibitory Concentration
Outline: as §1

[18] = test system: Klebsiella pneumoniae PCI-602; assay: Antibacterial activity, agar-dilution MIC, organism No. 7; conditions: Organism No. 7, bouillon-agar; for MIC: Klebsiella pneumoniae, PCI602, read-out: Minimum Inhibitory Concentration
Outline: as §1

[19] = test system: Enterobacter aerogenes ATCC 13048; assay: Antibacterial activity, agar-dilution MIC, organism No. 23; conditions: Organism No. 23, bouillon-agar; for MIC: Klebsiella aerogenes, ATCC13048, read-out: Minimum Inhibitory Concentration
Outline: as §1

[20] = test system: Proteus morganii IFO 3848; assay: Antibacterial activity, agar-dilution MIC, organism No. 18; conditions: Organism No. 18, bouillon-agar; for MIC: Morganella morganii, IFO3848, read-out: Minimum Inhibitory Concentration
Outline: as §1

[21] = test system: Serratia marcescens IAM 1184; assay: Antibacterial activity, agar-dilution MIC, organism No. 13; conditions: Organism No. 13, bouillon-agar; for MIC: Serratia marcescens, IAM1184, read-out: Minimum Inhibitory Concentration
Outline: as §1

[22] = test system: Streptococcus pyogenes IFO 3340; assay: Antibacterial activity, agar-dilution MIC, organism No. 26; conditions: Organism No. 26, bouillon-agar; for MIC: Streptococcus pyogenes, IFO3340, read-out: Minimum Inhibitory Concentration
Outline: as §1

[23] = test system: Pseudomonas aeruginosa IFO 3445; assay: Antibacterial activity, agar-dilution MIC, organism No. 15; conditions: Organism No. 15, bouillon-agar; for MIC: Pseudomonas aeruginosa, IFO3445, read-out: Minimum Inhibitory Concentration
Outline: as §1

[24] = test system: Salmonella enteritidis G 14; assay: Antibacterial activity, agar-dilution MIC, organism No. 12; conditions: Organism No. 12, bouillon-agar; for MIC: Salmonella enterica, ENTERITIDIS, read-out: Minimum Inhibitory Concentration
Outline: as §1

[25] = test system: Pseudomonas aeruginosa NCTC 10490; assay: Antibacterial activity, agar-dilution MIC, organism No. 16; conditions: Organism No. 16, bouillon-agar; for MIC: Pseudomonas aeruginosa, NCTC10490, read-out: Minimum Inhibitory Concentration
Outline: as §1

[26] = test system: Staphylococcus aureus FDA 209PJc-1; assay: Antibacterial activity, agar-dilution MIC, organism No. 1; conditions: Organism No. 1, bouillon-agar; for MIC: Staphylococcus aureus, FDA209PJC1, read-out: Minimum Inhibitory Concentration
Outline: as §1

[27] = test system: Bacillus subtilis ATCC 6633; assay: Antibacterial activity, agar-dilution MIC, organism No. 14; conditions: Organism No. 14, bouillon-agar; for MIC: Bacillus subtilis, ATCC6633, read-out: Minimum Inhibitory Concentration
Outline: as §1

[28] = test system: Proteus vulgaris HX-19; assay: Antibacterial activity, agar-dilution MIC, organism No. 21; conditions: Organism No. 21, bouillon-agar; for MIC: Proteus vulgaris, HX19, read-out: Minimum Inhibitory Concentration
Outline: as §1

[29] = test system: Aspergillus niger IFO 6342; assay: Antifungal activity, agar-dilution MIC, organism No. 30; conditions: Organism No. 30, bouillon-agar; for MIC: Aspergillus niger, IFO6342, read-out: Minimum Inhibitory Concentration
Outline: as §1

[30] = test system: Staphylococcus aureus Terajima; assay: Antibacterial activity, agar-dilution MIC, organism No. 2; conditions: Organism No. 2, bouillon-agar; for MIC: Staphylococcus aureus, read-out: Minimum Inhibitory Concentration
Outline: as §1

In the case of `[C-]#[N+]C12CC3(/C=C/C(=O)Nc4ccc(SC)cc4)OC3C1O2` (stereo not drawn) [compound 76], the “Minimum Inhibitory Concentration” value [1] is reported as 1.56 µg/mL, the “Minimum Inhibitory Concentration (MIC)” value [2] is reported as less than 0.2 and the “Minimum Inhibitory Concentration” value [3] is reported as 25 µg/mL. The “Minimum Inhibitory Concentration” value ([4]; Organism No. 10, bouillon-agar) was 0.78 µg/mL, the “Minimum Inhibitory Concentration” value [5] was 1.56 µg/mL and the “Minimum Inhibitory Concentration” value ([6]; Organism No. 9, bouillon-agar) was 25 µg/mL. For the same compound, the “Minimum Inhibitory Concentration” value [7] was greater than 200 µg/mL, the “Minimum Inhibitory Concentration” value [8] was greater than 200 µg/mL and the “Minimum Inhibitory Concentration” value [9] was 100 µg/mL. For the same compound, the “Minimum Inhibitory Concentration” value [10] was greater than 200 µg/mL, the “Minimum Inhibitory Concentration” value [11] was greater than 200 µg/mL and the “Minimum Inhibitory Concentration” value [12] was 50 µg/mL. The “Minimum Inhibitory Concentration” value [13] was 1.56 µg/mL, the “Minimum Inhibitory Concentration” value [14] was 0.78 µg/mL and the “Minimum Inhibitory Concentration” value [15] was greater than 200 µg/mL. The “Minimum Inhibitory Concentration” value [16] was 100 µg/mL, the “Minimum Inhibitory Concentration” value [17] was 200 µg/mL and the “Minimum Inhibitory Concentration” value [18] was 0.78 µg/mL. For the same compound, the “Minimum Inhibitory Concentration” value [19] was greater than 200 µg/mL, the “Minimum Inhibitory Concentration” value [20] was 3.13 µg/mL and the “Minimum Inhibitory Concentration” value [21] was greater than 200 µg/mL. The “Minimum Inhibitory Concentration” value [22] was 1.56 µg/mL, the “Minimum Inhibitory Concentration” value [23] was greater than 200 µg/mL and the “Minimum Inhibitory Concentration” value [24] was greater than 200 µg/mL. The “Minimum Inhibitory Concentration” value [25] was greater than 200 µg/mL, the “Minimum Inhibitory Concentration” value [26] was 0.39 µg/mL and the “Minimum Inhibitory Concentration” value [27] was 12.5 µg/mL. For the same compound, the “Minimum Inhibitory Concentration” value [28] was 0.78 µg/mL, the “Minimum Inhibitory Concentration” value [29] was 100 µg/mL and the “Minimum Inhibitory Concentration” value [30] was 1.56 µg/mL.
Compound `[C-]#[N+]C12CC3(/C=C/C(=O)Nc4cc(C(=O)OC)ccc4OC)OC3C1O2` (stereo not drawn) [compound 77] has an MIC [1] greater than 200 µg/mL, an MIC [2] of 3.13 µg/mL and an MIC [3] greater than 200 µg/mL. It also gave an MIC [4] greater than 200 µg/mL, an MIC [5] greater than 200 µg/mL and an MIC [6] greater than 200 µg/mL. The MIC [7] was greater than 200 µg/mL, the MIC [8] was greater than 200 µg/mL and the MIC [9] was greater than 200 µg/mL. The MIC [10] was greater than 200 µg/mL, the MIC [11] was greater than 200 µg/mL and the MIC [12] was 50 µg/mL (≈ 140 µM). The MIC [13] was greater than 200 µg/mL, the MIC [14] was greater than 200 µg/mL and the MIC [15] was greater than 200 µg/mL. It also gave an MIC [16] of 200 µg/mL (≈ 561 µM), an MIC [17] greater than 200 µg/mL and an MIC [18] of 100 µg/mL (≈ 281 µM). The MIC [19] was greater than 200 µg/mL, the MIC [20] was 200 µg/mL (≈ 561 µM) and the MIC [21] was greater than 200 µg/mL. For the same compound, the MIC [22] was 6.25 µg/mL (≈ 17.5 µM), the MIC [23] was greater than 200 µg/mL and the MIC [24] was greater than 200 µg/mL. For the same compound, the MIC [25] was greater than 200 µg/mL, the MIC [26] was greater than 200 µg/mL and the MIC [27] was 100 µg/mL (≈ 281 µM). For the same compound, the MIC [28] was 100 µg/mL (≈ 281 µM), the MIC [29] was 200 µg/mL (≈ 561 µM) and the MIC [30] was greater than 200 µg/mL.
Compound `[C-]#[N+]C12CC3(/C=C/C(=O)Nc4ccc(C(=O)c5ccccc5)cc4)OC3C1O2` (stereo not drawn) [compound 79] has an MIC [1] of 1.56 µg/mL (≈ 4.19 µM), an MIC [2] of less than 0.2 µg/mL and an MIC [3] of 0.39 µg/mL (≈ 1.05 µM). It also gave an MIC [4] of 3.13 µg/mL (≈ 8.41 µM), an MIC [5] of 6.25 µg/mL (≈ 16.8 µM) and an MIC [6] of 200 µg/mL (≈ 537 µM). The MIC [7] was greater than 200 µg/mL, the MIC [8] was greater than 200 µg/mL and the MIC [9] was 3.13 µg/mL (≈ 8.41 µM). The MIC [10] was greater than 200 µg/mL, the MIC [11] was greater than 200 µg/mL and the MIC [12] was greater than 200 µg/mL. The MIC [13] was 0.78 µg/mL (≈ 2.09 µM), the MIC [14] was 0.39 µg/mL (≈ 1.05 µM) and the MIC [15] was greater than 200 µg/mL. It also gave an MIC [16] greater than 200 µg/mL, an MIC [17] greater than 200 µg/mL and an MIC [18] of 3.13 µg/mL (≈ 8.41 µM). For the same compound, the MIC [19] was greater than 200 µg/mL, the MIC [20] was 6.25 µg/mL (≈ 16.8 µM) and the MIC [21] was greater than 200 µg/mL. For the same compound, the MIC [22] was 0.78 µg/mL (≈ 2.09 µM), the MIC [23] was greater than 200 µg/mL and the MIC [24] was greater than 200 µg/mL. For the same compound, the MIC [25] was greater than 200 µg/mL, the MIC [26] was 0.39 µg/mL (≈ 1.05 µM) and the MIC [27] was 1.56 µg/mL (≈ 4.19 µM). It also gave an MIC [28] of 1.56 µg/mL (≈ 4.19 µM), an MIC [29] of 3.13 µg/mL (≈ 8.41 µM) and an MIC [30] of 0.78 µg/mL (≈ 2.09 µM).
